Test results reported in PMC2700083, “A covalent peptide inhibitor of RGS4 identified in a focused one-bead, one compound library screen” (BMC Pharmacology, 2009).
Values joined by “and” are separate entries in the source; they are usually repeats but may differ in a detail not shown here. Equal values may be shown once. Read-outs that look alike come from different tables or passages of the source. Where a SMILES comes first, the peptide text is derived from it. Bridges are numbered along the chain shown (N, C = ends).

How the values were obtained:
RGS8 = molecular target: T1, RGS8 (Homo sapiens, UniProt P57771); test: FCPIA, Gαo binding to RGS8
T1 construct: RGS8 full length; made in house
T1 sequence (P57771 1-180): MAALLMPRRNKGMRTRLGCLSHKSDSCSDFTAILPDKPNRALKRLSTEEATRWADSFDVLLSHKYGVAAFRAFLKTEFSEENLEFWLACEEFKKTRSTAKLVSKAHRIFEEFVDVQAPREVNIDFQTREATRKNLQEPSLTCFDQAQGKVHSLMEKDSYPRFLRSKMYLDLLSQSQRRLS
Experimental: (§1) We recently described a bead-based screen in which 2.5 × 10^6 different peptide sequences were prepared as a OBOC library. Fluorescently labeled RGS4 was used to probe the library for peptides that bind RGS4 [5]. […] Since the majority of those hit peptides could bind tightly to the RGS without disrupting GAP activity, they were also tested in the flow cytometry protein interaction assay (FCPIA) (Figure 1), which measures the interaction between RGS4 and Gαo. In this method we used a Luminex flow cytometer to detect the binding of Alexa Fluor 532-labeled Gαo to biotinylated RGS4 on avidin beads in the presence of AMF (AlCl3, MgCl2, NaF and GDP) to put the Gα subunit into a transition state-like conformation. Peptides were tested at 50 μM except where limited by solubility (Table 1).
(§2) 5nd inhibited Gαo binding to a number of different RGS proteins (Figure 2). […] RGS19 and RGS7 are in the RZ and R7 families, respectively and show less inhibition by 5nd. Linear as well as bridged versions of peptide 5 were tested in the FCPIA since cyclization yields would most likely have been less then 100% in the synthesis of the library leaving some linear peptides present on each bead. […] This may be due to lack of structural rigidity necessary for the correct interaction of the peptide with the RGS protein or a role for chemical reactivity of the disulfide.
Figure 2 Characterization of hit 5. A) and B) Dose response curves for 5nd in the FCPIA with different RGS proteins (RGS Family), (mean ± S.E.M., n = 3) *p < 0.05, **p < 0.01, ***p < 0.001 compared to RGS4 at the same 5nd concentration. C) Peptides were tested at 50 μM as in Figure 1, (mean ± S.E.M., n ≥ 3) *p < 0.05, **p < 0.01, ***p < 0.001 compared to no peptide.
Figure 3 Irreversibility experiments. RGS-biotin on avidin beads was treated with 5nd (100 μM) or 5nm (100 μM) and then washed in buffer (with or without 1 mM DTT) or not washed and put in the FCPIA using RGS4 (A) or RGS8 (B) (mean ± S.E.M., n ≥ 2) *p < 0.05, **p < 0.01, ***p < 0.001 compared to no peptide (100%); #p < 0.05, ##p < 0.01, ###p < 0.001 compared to 5nd no wash.
(§3) Proteins were expressed, purified and labeled as described previously. The mutagenesis was done using the "QuickChange Multi Site-Directed Mutagenesis Kit" from Stratagene according to the manufacturer's protocol. The construct of RGS4 used in these studies is a maltose binding protein (MBP-) fusion protein of the RGS4 sequence from which the amphipathic N-terminal helix has been removed (i.e. MBP-RGS4Δ51N). For simplicity in the text, this will be referred to as RGS4. All other RGS proteins were human sequences and were used as Mpb fusions: RGS7 RGS domain (aa: 305–453), RGS8 full length, RGS16 full length, and RGS19ΔC11 (amino acids 1–209). […]

RGS7 = molecular target: T2, RGS7 (Homo sapiens, UniProt P49802); test: FCPIA, Gαo binding to RGS7; conditions: Figure 2
T2 construct: RGS7 RGS domain (aa: 305–453); made in house
T2 sequence (P49802 305-453): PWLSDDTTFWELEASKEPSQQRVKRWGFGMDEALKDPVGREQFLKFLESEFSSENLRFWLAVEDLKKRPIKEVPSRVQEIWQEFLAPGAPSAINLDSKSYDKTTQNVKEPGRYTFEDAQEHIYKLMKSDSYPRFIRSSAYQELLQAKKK
Experimental: as §1, §2
Figure 2 Characterization of hit 5. […]

RGS4 C71A = molecular target: T3, RGS4 C71A (Rattus norvegicus, UniProt P49799, C71A); test: FCPIA, RGS4 cysteine mutant C71A; format: binding; conditions: read-out: 5nd logIC50 (converted)
T3 construct: made in house
T3 sequence (P49799 52-205 C71A limits assumed): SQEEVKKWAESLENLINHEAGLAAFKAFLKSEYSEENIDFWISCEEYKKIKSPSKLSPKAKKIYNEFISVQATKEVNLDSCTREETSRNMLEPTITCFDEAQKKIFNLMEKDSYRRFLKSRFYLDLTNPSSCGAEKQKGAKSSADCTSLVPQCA
Experimental: (§4) Figure 5 Dose curves of 5nd on various RGS4 cysteine mutants. Various concentrations of 5nd were tested for disruption of the RGS4-Gαo interaction for C95A (5 nM), or […], C71A (5nM) or C148A (5nM) (B), A95C in the -7C (5nM), or A132C in the -7C (5nM) (C), A71C in the -7C (5nM), or A148C in the -7C (5nM) (D) or the mutant with no cysteines in the domain (20 nM) or the C-terminus (20 nM) (E) in the FCPIA (mean ± S.E.M., n ≥ 3).
Proteins were expressed, purified and labeled as described previously. The mutagenesis was done using the "QuickChange Multi Site-Directed Mutagenesis Kit" from Stratagene according to the manufacturer's protocol. The construct of RGS4 used in these studies is a maltose binding protein (MBP-) fusion protein of the RGS4 sequence from which the amphipathic N-terminal helix has been removed (i.e. MBP-RGS4Δ51N). For simplicity in the text, this will be referred to as RGS4. All other RGS proteins were human sequences and were used as Mpb fusions: RGS7 RGS domain (aa: 305–453), RGS8 full length, RGS16 full length, and RGS19ΔC11 (amino acids 1–209). To cleave RGS4Δ51N from the MBP-His6 construct for MS analysis, MBP-His6-RGS4Δ51N was treated with 15% MBP-His6-TEV protease S219V [11] for 22 hours at 4°C and purified over a Ni-NTA column.
FCPIA was performed as previously published.

RGS4 A71C, -7C = molecular target: T4, RGS4 A71C, -7C (Rattus norvegicus, UniProt P49799, C132A/C148A/C183A/C197A/C204A/C95A); test: FCPIA, RGS4 A71C in the -7C; format: binding; conditions: read-out: 5nd logIC50 (converted)
T4 construct: made in house
Experimental: as §4
The previous experiments tested which cysteines are necessary for inhibition by 5nd. In an alternative approach, we added cysteines back to the -7C mutant to determine which might be sufficient for 5nd activity. […] Furthermore, Cys132 is involved in the actions but this is clearly not sufficient to explain them. Thus it is concluded that 5nd is at least partially non-selective in its cysteine modification.
as §3, with “RGS4.” for “RGS4. All other RGS proteins were human sequences and were used as Mpb fusions: RGS7 RGS domain (aa: 305–453), RGS8 full length, RGS16 full length, and RGS19ΔC11 (amino acids 1–209).”

[1] = molecular target: T5, RGS4 no Cys in RGS domain (Rattus norvegicus, UniProt P49799, C132A/C148A/C71A/C95A); test: FCPIA, RGS4 mutant with no Cys in RGS domain; format: binding
T5 construct: made in house
Experimental: Since 5nd forms an irreversible, DTT-sensitive bond with RGS, it was suspected that it binds covalently to a cysteine in the protein through a disulfide bridge. Indeed, removal of all 7 cysteines (termed the -7C mutant) from RGS4 greatly diminished 5nd activity (logIC50 of -3.24 ± 0.14 for -7C vs. -4.36 ± 0.02 for wild type) (Figure 5, Table 2).
as §4
as §3, with “RGS4.” for “RGS4. All other RGS proteins were human sequences and were used as Mpb fusions: RGS7 RGS domain (aa: 305–453), RGS8 full length, RGS16 full length, and RGS19ΔC11 (amino acids 1–209).”

T5 sequence (P49799 52-205 C71A/C95A/C132A/C148A limits assumed): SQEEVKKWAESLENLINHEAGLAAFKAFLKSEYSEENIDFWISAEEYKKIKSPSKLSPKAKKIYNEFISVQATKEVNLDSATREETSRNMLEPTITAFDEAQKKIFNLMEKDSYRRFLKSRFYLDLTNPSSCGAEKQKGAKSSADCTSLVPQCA
T4 sequence (P49799 52-205 C95A/C132A/C148A/C183A/C197A/C204A): as the sequence (P49799 52-205 C71A/C95A/C132A/C148A limits assumed) above, with A20C, C132A, C146A, C153A counted along it

SMILES: CC(C)C[C@@H]1NC(=O)CNC(=O)[C@H](CCCCN)NC(=O)[C@@H](NC(=O)[C@H](Cc2c[nH]c3ccccc23)NC(=O)[C@@H](N)Cc2ccc(O)cc2)CSSC[C@@H](C(=O)N[C@@H](CCCCN)C(N)=O)NC1=O [Peptide 5nd, Tyr-Trp-c [Cys-Lys-Gly-Leu-Cys]-Lys-NH2, S-S] (H-YWCKGLCK-NH2; disulfide 3-7)
- inhibition at 100 µM (RGS8; beads washed in buffer with 1 mM DTT, read-out: percent inhibition, RGS8, DTT wash): 10 ± 3%
- inhibition at 100 µM (RGS8; beads washed in buffer without DTT, read-out: percent inhibition, RGS8, wash): 50 ± 3%
- inhibition at 100 µM (RGS8; no wash, read-out: percent inhibition, RGS8): 64 ± 2%
- IC50 (RGS7; read-out: logIC50, RGS7 (converted)): ~174 µM
- IC50 (RGS7; dose response, read-out: IC50, Gαo binding to RGS7): 175 µM and ~175 µM
- IC50 (RGS4 C71A): 45.7 µM
- IC50 (RGS4 A71C, -7C): 631 µM
- IC50 ([1]; no Cys in RGS domain, read-out: 5nd logIC50 (converted)): 158 µM
- reduction of potency by removal of all 4 cysteines from the RGS domain ([1]; versus wild type RGS4): 3.6 fold
